Results reported in ChEMBL document CHEMBL1151241, “Sesquiterpenes and flavonol glycosides from Zingiber aromaticum and their CYP3A4 and CYP2D6 inhibitory activities” (J Nat Prod, 2004).

Legend:
Cytochrome P450 3A4 = Cytochrome P450 3A4 (Homo sapiens, UniProt P08684); test: Inhibition of human CYP3A4 by radiometric assay; format: ADME
Cytochrome P450 2D6 = Cytochrome P450 2D6 (Homo sapiens, UniProt P10635); test: Inhibition of human CYP2D6 by radiometric assay; format: ADME
Cytochrome P450 2D6, sequence (P10635 whole entry): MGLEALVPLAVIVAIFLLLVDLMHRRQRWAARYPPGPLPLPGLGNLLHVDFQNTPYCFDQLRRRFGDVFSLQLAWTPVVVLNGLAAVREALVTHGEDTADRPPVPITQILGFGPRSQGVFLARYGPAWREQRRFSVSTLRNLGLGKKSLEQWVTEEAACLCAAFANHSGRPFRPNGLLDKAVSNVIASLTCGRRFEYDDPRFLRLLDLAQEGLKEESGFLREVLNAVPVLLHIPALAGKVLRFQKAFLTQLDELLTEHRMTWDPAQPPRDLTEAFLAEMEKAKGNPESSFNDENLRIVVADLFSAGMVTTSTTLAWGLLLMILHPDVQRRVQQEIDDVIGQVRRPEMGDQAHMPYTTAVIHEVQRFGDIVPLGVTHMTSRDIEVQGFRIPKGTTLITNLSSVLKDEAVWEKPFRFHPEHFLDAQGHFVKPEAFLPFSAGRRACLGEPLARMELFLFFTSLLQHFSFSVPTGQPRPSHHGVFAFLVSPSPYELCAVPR

Cytochrome P450 3A4, sequence (P08684 whole entry): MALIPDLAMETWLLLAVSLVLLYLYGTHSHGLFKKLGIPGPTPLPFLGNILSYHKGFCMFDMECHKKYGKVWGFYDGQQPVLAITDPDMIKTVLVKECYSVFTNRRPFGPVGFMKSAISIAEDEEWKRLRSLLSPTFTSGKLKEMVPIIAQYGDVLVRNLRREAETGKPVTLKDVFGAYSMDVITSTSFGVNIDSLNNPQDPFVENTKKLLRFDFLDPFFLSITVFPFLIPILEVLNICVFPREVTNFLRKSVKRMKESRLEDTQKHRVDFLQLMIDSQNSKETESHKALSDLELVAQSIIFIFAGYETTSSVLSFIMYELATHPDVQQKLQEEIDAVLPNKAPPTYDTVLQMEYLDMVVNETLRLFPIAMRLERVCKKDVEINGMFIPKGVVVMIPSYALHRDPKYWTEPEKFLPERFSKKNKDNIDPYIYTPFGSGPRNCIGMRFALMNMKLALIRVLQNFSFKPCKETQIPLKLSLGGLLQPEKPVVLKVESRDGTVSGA

SMILES: CC(=O)O[C@@H]1[C@@H](OC(C)=O)[C@@H](O)[C@H](Oc2c(-c3ccc(O)cc3)oc3cc(O)cc(O)c3c2=O)O[C@H]1C
- IC50 (Cytochrome P450 3A4): 20.6 µM
- IC50 (Cytochrome P450 2D6): 50.5 µM

SMILES: CC(=O)O[C@H]1[C@H](Oc2c(-c3ccc(O)cc3)oc3cc(O)cc(O)c3c2=O)O[C@@H](C)[C@H](O)[C@H]1O
- IC50 (Cytochrome P450 3A4): 59 µM
- IC50 (Cytochrome P450 2D6): > 100 µM

SMILES: C/C1=C\CC(C)(C)/C=C/C(=O)/C(C)=C/[C@H](O)C1
- IC50 (Cytochrome P450 3A4): 35.5 µM
- IC50 (Cytochrome P450 2D6): > 100 µM

SMILES: CC(=O)O[C@@H]1[C@@H](O)[C@H](C)O[C@@H](Oc2c(-c3ccc(O)cc3)oc3cc(O)cc(O)c3c2=O)[C@@H]1OC(C)=O
- IC50 (Cytochrome P450 3A4): 55.8 µM
- IC50 (Cytochrome P450 2D6): > 100 µM

SMILES: CC(=O)O[C@@H]1[C@@H](O)[C@H](C)O[C@@H](Oc2c(-c3ccc(O)cc3)oc3cc(O)cc(O)c3c2=O)[C@@H]1O
- IC50 (Cytochrome P450 3A4): 98.3 µM
- IC50 (Cytochrome P450 2D6): > 100 µM

SMILES: CC(=O)O[C@@H]1[C@@H](O)[C@@H](OC(C)=O)[C@H](Oc2c(-c3ccc(O)cc3)oc3cc(O)cc(O)c3c2=O)O[C@H]1C
- IC50 (Cytochrome P450 3A4): 31.6 µM
- IC50 (Cytochrome P450 2D6): > 100 µM

SMILES: C/C1=C\[C@H](O)C[C@@]2(C)O[C@@H]2CC(C)(C)/C=C/C1=O
- IC50 (Cytochrome P450 3A4): 62.5 µM
- IC50 (Cytochrome P450 2D6): > 100 µM

SMILES: C/C1=C\[C@H](O)C[C@]2(C)O[C@@H]2CC(C)(C)/C=C/C1=O
- IC50 (Cytochrome P450 3A4): 42.6 µM
- IC50 (Cytochrome P450 2D6): > 100 µM

SMILES: CC(=O)O[C@@H]1[C@@H](OC(C)=O)[C@H](C)O[C@@H](Oc2c(-c3ccc(O)cc3)oc3cc(O)cc(O)c3c2=O)[C@@H]1OC(C)=O
- IC50 (Cytochrome P450 3A4): 14.4 µM
- IC50 (Cytochrome P450 2D6): 43.3 µM

SMILES: COc1ccc(-c2oc3cc(O)cc(O)c3c(=O)c2OC)cc1 [ERMANIN]
- IC50 (Cytochrome P450 3A4): 21.8 µM
- IC50 (Cytochrome P450 2D6): 45.5 µM

SMILES: COc1c(-c2ccc(O)cc2)oc2cc(O)cc(O)c2c1=O [ISOKAEMPFERIDE]
- IC50 (Cytochrome P450 3A4): 36.2 µM
- IC50 (Cytochrome P450 2D6): 4.63 µM

SMILES: CCCCC/C=C/C(=O)CCc1ccc(O)c(OC)c1 [SHOGAOL]
- IC50 (Cytochrome P450 3A4): 77.7 µM
- IC50 (Cytochrome P450 2D6): > 100 µM

SMILES: C/C1=C\CC[C@@]2(C)O[C@@H]2CC(C)(C)/C=C/C1=O [ZERUMBONE EPOXIDE]
- IC50 (Cytochrome P450 3A4): 48.4 µM
- IC50 (Cytochrome P450 2D6): > 100 µM

SMILES: C/C1=C\CC(C)(C)/C=C/C(=O)/C(C)=C/CC1 [ZERUMBONE]
- IC50 (Cytochrome P450 3A4): 21.8 µM
- IC50 (Cytochrome P450 2D6): > 100 µM
